# Experiments:
# PKCepsilon = target: T1, PKCepsilon (Homo sapiens, UniProt Q02156); test: Antibody competitive binding assay with fluorescent antibody (FIG. 4); details: PRE at 20× concentration
# T1 construct: purchased
# T1 sequence (Q02156 1-737): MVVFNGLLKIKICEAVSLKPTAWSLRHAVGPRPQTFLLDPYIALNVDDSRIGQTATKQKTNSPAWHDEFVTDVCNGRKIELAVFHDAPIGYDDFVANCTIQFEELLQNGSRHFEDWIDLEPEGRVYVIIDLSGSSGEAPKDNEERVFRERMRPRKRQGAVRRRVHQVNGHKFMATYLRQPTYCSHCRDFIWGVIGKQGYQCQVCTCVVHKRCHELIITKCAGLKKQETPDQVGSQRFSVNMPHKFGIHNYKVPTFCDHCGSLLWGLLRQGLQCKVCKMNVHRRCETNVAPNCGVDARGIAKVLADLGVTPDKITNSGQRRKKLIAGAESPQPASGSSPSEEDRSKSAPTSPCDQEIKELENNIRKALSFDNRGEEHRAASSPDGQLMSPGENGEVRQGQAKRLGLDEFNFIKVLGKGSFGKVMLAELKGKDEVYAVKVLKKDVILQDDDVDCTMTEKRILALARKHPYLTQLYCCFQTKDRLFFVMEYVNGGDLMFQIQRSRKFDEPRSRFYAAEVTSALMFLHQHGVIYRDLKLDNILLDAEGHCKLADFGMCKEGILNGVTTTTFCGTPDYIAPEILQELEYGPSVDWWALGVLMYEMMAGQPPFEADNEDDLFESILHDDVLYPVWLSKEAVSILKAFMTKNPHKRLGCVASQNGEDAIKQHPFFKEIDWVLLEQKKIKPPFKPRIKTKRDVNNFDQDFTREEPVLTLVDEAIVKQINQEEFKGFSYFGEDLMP
# Experimental: (§1) FIG. 4 presents data from conventional antibody competitive binding assays using PKC-α versus a representative battery of PKC isoforms (commercially available). PKC isoforms representing the three subgroups of the PKC family were assessed (classical PKCs=PKCalpha; novel PKCs=PKCdelta and epsilon; atypical PKCs=PKCzeta). Controls received the appropriate PKC isoform fluorescent antibody. Treated samples received the PRE sequence from PhGα1 (20× concentration) and the same PKC antibody. Specific affinity to PKC-α in the treated sample by the PRE will therefore decrease the amount of binding by the fluorescent antibody, represented by a decrease in fluorescent intensity in the treated sample.
# PKC-α = PKC-α (Homo sapiens, UniProt P17252); test: as above; details: PRE at 20× concentration
# Experimental: as §1
substance,measurement,setting,value
"Ac-KDAQNLIGISI-NH2 [PRE 4, Ac-KDAQNLIGISI-NH2]",effect on fluorescent antibody binding to PKCepsilon,PKCepsilon,"not with PKCdelta, epsilon or zeta"
same,effect on fluorescent antibody binding to PKC-α,PKC-α,decrease in antibody binding
